Results from patent US20190070170A1, “METHOD OF S[…]-1” (Macau University of Science and Technology, priority 2017, published 2019).

How the values were obtained:
COX-1 = COX-1 protein in microsomes of inflamed paw of carrageenan-induced rats (western blotting); format: in vivo, SD rats; conditions: SIN or DEX pretreatment i.p.
Method: The model of carrageenan-induced paw edema was performed with SD rats (150-200 g). The carrageenan-induced paw edema was performed in SD rats (150-200 g) by subcutaneously injection λ-carrageenan as described in Liu J. et al., Pharmacological research 2016, 111 and Luo P. et al., J. Pharmacol. Exp. Ther. 2010. Briefly, rats were fasted for 12 h before experiment and intraperitoneal injection was performed with three different doses (25, 50 and 100 mg/kg) of SIN, or DEX (reference drug, 2 mg/kg) or 0.9% saline (Vehicle and Normal group rats), at 2 h prior to the induction of paw edema. […] Paw volumes (ml) of right hind foot of each rat were measured using a plethysmometer (type 7150; UGO Basile, Comerio, Italy) at 0 h (before carrageenan injection) and then again at 1, 2, 3 and 4 h after the injection of carrageenan or saline. The percentage of paw edema of the right hind paws of all groups were calculated at different time points by the following equation: […]
Whole-cell and nuclear proteins were obtained using RIPA lysis buffer (CST, Boston, Mass., USA) and Nuclear and Cytoplasmic Extraction Reagents kit from Thermo Scientific (Asheville, N.C., USA), respectively. […] The levels of protein expression were measured using Odyssey v3.0 software from Li-COR (Lincoln, Nebr., USA).

NF-κB (mPGES-1 promoter) = target: T1, NF-κB (mPGES-1 promoter) (Rattus norvegicus, UniProt Q7TQN4); experiment: ChIP assay: NF-κB DNA binding to mPGES-1 promoter in LPS-stimulated rat peritoneal macrophages; format: cell-based; conditions: 640 μM SIN 1 h, 1 μg/ml LPS 30 min
T1 construct: Peritoneal macrophages of SD rats were isolated; endogenous in cells; host or cells: primary peritoneal macrophages of SD rats
T1 sequence (Q7TQN4 whole entry): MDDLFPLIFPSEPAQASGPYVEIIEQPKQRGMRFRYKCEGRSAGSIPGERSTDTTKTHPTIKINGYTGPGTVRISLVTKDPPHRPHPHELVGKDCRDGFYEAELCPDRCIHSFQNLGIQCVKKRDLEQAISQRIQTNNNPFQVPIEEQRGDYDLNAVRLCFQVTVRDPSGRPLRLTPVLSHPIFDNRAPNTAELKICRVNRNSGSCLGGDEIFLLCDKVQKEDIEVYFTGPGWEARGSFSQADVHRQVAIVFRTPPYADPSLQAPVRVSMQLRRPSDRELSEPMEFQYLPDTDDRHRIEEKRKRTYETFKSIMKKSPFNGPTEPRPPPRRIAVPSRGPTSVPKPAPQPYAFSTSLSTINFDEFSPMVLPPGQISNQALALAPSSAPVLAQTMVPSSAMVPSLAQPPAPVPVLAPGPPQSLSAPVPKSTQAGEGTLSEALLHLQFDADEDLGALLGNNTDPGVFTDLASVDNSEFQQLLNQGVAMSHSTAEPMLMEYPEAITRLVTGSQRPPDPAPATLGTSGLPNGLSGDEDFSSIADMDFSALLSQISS
Method: Rat peritoneal macrophages were pretreated with 640 μM SIN (1 h) and stimulated with 1 μg/ml LPS (30 min) before fixation at room temperature for 10 min with 1% formaldehyde. Fixation was terminated by adding glycine (to 0.125 M) with an additional incubation of 5 min, then the cells were washed twice with ice-cold PBS and harvested by scraping and centrifugation (1500 rpm for 10 min at 4° C.). Cell lysis was performed using ChIP kit from abcam (Cambridge, UK) according to the manufacturer's instructions. Briefly, cell pellets were resuspended in 1 ml Buffer B by pipetting up and down several times in a microcentrifuge tube and incubated at room temperature for 10 min. After centrifugation at 5000 rpm, the pellet was collected and resuspended in ice cold Buffer C and incubated on ice for 10 min, followed by centrifugation (5,000 rpm for 10 min at 4° C.). The pellet was mixed with 100 μl Buffer D containing protease inhibitors, incubated on ice for 10 min and sonicated for 30 cycles in a Bioruptor UCD-300 sonicator (power on high, 30 s on, 30 s off per cycle), yielding DNA fragments of 150-200 bps (the size of sonicated chromatin was checked through running 2% agarose gel). Beads were blocked overnight in PBS with 0.5% BSA and then added to the samples. […]

For COC1=C[C@@H]2[C@@H]3Cc4ccc(OC)c(O)c4[C@]2(CCN3C)CC1=O [SIN, sinomenine], the “COX-1 level in inflamed paw” value (COX-1) was “did not produce observable effects” and the “DNA binding of NF-κB to the promoter of mPGES-1” value (NF-κB (mPGES-1 promoter)) was “selectively inhibited”.
